Some test systems named below: A549 NSCLC; COLO 205 colon; CCRF-CEM leukemia; NCI-H226 lung; K-562 leukemia; MDA-MB-435; BT-549 breast; IGROV1 ovarian; MALME-3M melanoma; SK-MEL-2 melanoma.
Common to all, as to assay: NCI-60 cell line screen, 48 h

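Grown in 96-well plates, cells were treated for 48 hours with each compound at five concentrations. Insufficient inhibition: endpoint recorded as highest concentration tested. GI50 is the concentration that inhibits growth by half. TGI denotes the concentration required for complete inhibition of growth.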

Take `CC1(C)N=C(N)N=C(N)N1c1ccc(OCCCCNC(=O)Nc2cccc(S(=O)(=O)F)c2)c(Cl)c1`: the GI50 with A549 NSCLC is 2.27 µM; with COLO 205 colon, 3.78 µM; in the assay on CCRF-CEM leukemia, 0.95 µM; in the assay on NCI-H226 lung it was 7.95 µM; with K-562 leukemia, 0.351 µM; in the assay with MDA-MB-435 it was 0.642 µM. Further, the GI50 in the assay with BT-549 breast is 12.5 µM; with IGROV1 ovarian, 0.581 µM; with MALME-3M melanoma it was 29.6 µM; in the assay with SK-MEL-2 melanoma it was 13.6 µM. Also, the TGI in the assay with A549 NSCLC, with COLO 205 colon, in the assay with CCRF-CEM leukemia, in the assay on NCI-H226 lung, with K-562 leukemia and in the assay with MDA-MB-435 was greater than 100 µM each time. Moreover, the TGI with BT-549 breast, with IGROV1 ovarian, with MALME-3M melanoma and in the assay with SK-MEL-2 melanoma was greater than 100 µM each time.
As for `NCC(Cc1ccccc1)P(=O)(O)O` (stereo not given), the TGI in the assay with A549 NSCLC, with COLO 205 colon, in the assay with CCRF-CEM leukemia, with NCI-H226 lung, in the assay on K-562 leukemia and in the assay with MDA-MB-435 was greater than 100 µM in each case. For the same compound, the TGI in the assay with BT-549 breast, in the assay on IGROV1 ovarian, in the assay on MALME-3M melanoma and with SK-MEL-2 melanoma was greater than 100 µM in each case.
As to `CCN(CCNc1ccc(C)c2sc3cc(Cl)ccc3c(=O)c12)CC(C)(C)O`, the GI50 was 5.2 µM in the assay on A549 NSCLC; 1.89 µM in the assay on COLO 205 colon; 7.5 µM with CCRF-CEM leukemia; 14 µM with NCI-H226 lung; 3.19 µM with K-562 leukemia; 2 µM in the assay on MDA-MB-435. Moreover, the GI50 with BT-549 breast was 18.7 µM; with IGROV1 ovarian, 2.68 µM; in the assay with MALME-3M melanoma, 2.16 µM; in the assay on SK-MEL-2 melanoma, 3.28 µM. For the same compound, the TGI in the assay with A549 NSCLC stood at 19.5 µM; with COLO 205 colon, 3.94 µM; in the assay with CCRF-CEM leukemia it was 61 µM; in the assay on NCI-H226 lung, 30.7 µM; in the assay with K-562 leukemia, 11.7 µM; in the assay on MDA-MB-435 it was 4.59 µM. Further, the TGI in the assay on BT-549 breast was greater than 100 µM; in the assay with IGROV1 ovarian it was 19.1 µM; with MALME-3M melanoma, 7.3 µM; in the assay with SK-MEL-2 melanoma, 14.2 µM.
Turning to `CN1CC[C@]23c4c5ccc(O)c4OC2c2[nH]ncc2C[C@H]3[C@H]1C5` (stereo not given in full), the TGI in the assay with A549 NSCLC, in the assay on COLO 205 colon, in the assay on CCRF-CEM leukemia, in the assay with NCI-H226 lung, in the assay on K-562 leukemia and in the assay on MDA-MB-435 was greater than 100 µM in each case. In addition, the TGI in the assay with BT-549 breast, in the assay on IGROV1 ovarian, in the assay on MALME-3M melanoma and in the assay on SK-MEL-2 melanoma was greater than 100 µM throughout.
With `O=C(CN(/C=C/C(=O)C(F)(F)F)c1ccccc1)c1ccc(F)cc1`, the GI50 was 35.4 µM with A549 NSCLC; 25 µM with COLO 205 colon; 15.8 µM in the assay on CCRF-CEM leukemia; 19.6 µM in the assay on NCI-H226 lung; 18.1 µM in the assay on K-562 leukemia; 27.1 µM in the assay on MDA-MB-435. Moreover, the GI50 in the assay with BT-549 breast is 31.5 µM; in the assay with IGROV1 ovarian, 21.9 µM; in the assay on MALME-3M melanoma, 26.7 µM; in the assay with SK-MEL-2 melanoma, 26.3 µM. The TGI was greater than 100 µM in the assay on A549 NSCLC; 58.3 µM with COLO 205 colon; 41.4 µM with CCRF-CEM leukemia; 47.8 µM in the assay on NCI-H226 lung; 52.6 µM with K-562 leukemia; 72.1 µM in the assay on MDA-MB-435. In addition, the TGI with BT-549 breast was greater than 100 µM; in the assay with IGROV1 ovarian, 79.2 µM; with MALME-3M melanoma it was 74.1 µM; in the assay on SK-MEL-2 melanoma it was 70.1 µM.
As to `CCc1ccc(C2=NN(c3ccc(S(C)(=O)=O)cc3)C(=O)CC2)cc1`, the GI50 was 0.913 µM with A549 NSCLC; 1.05 µM in the assay with COLO 205 colon; 1.23 µM in the assay on CCRF-CEM leukemia; 14.6 µM in the assay with NCI-H226 lung; 0.488 µM in the assay on K-562 leukemia; 0.212 µM with MDA-MB-435. In addition, the GI50 was 0.513 µM in the assay on BT-549 breast, 2.71 µM in the assay on IGROV1 ovarian, 3.58 µM with MALME-3M melanoma and 1.24 µM in the assay with SK-MEL-2 melanoma. The TGI in the assay on A549 NSCLC is greater than 100 µM; in the assay with COLO 205 colon, 7.75 µM; in the assay on CCRF-CEM leukemia, greater than 21.6 µM; in the assay on NCI-H226 lung, greater than 100 µM; in the assay on K-562 leukemia, greater than 100 µM; in the assay with MDA-MB-435, 0.804 µM. Besides, the TGI in the assay on BT-549 breast was 16.3 µM; with IGROV1 ovarian it was greater than 74.3 µM; with MALME-3M melanoma, greater than 82.2 µM; with SK-MEL-2 melanoma it was 98.4 µM.
As for `COc1ccc(C(=O)/C=C/c2ccc(OCc3ccccc3)c(OC)c2)cc1OC`, the GI50 was 3.05 µM in the assay with A549 NSCLC; 3.53 µM in the assay on COLO 205 colon; 3.04 µM in the assay with CCRF-CEM leukemia; 3.18 µM with NCI-H226 lung; 3.4 µM with K-562 leukemia; 2.97 µM in the assay with MDA-MB-435. Besides, the GI50 in the assay on BT-549 breast is 2.79 µM; in the assay with IGROV1 ovarian it was 5.04 µM; with MALME-3M melanoma, 12.7 µM; in the assay on SK-MEL-2 melanoma, 11 µM. The TGI in the assay on A549 NSCLC is 29.6 µM; in the assay on COLO 205 colon it was 22.6 µM; in the assay on CCRF-CEM leukemia it was 71.2 µM; with NCI-H226 lung, 36.6 µM; in the assay on K-562 leukemia it was greater than 100 µM; with MDA-MB-435 it was greater than 100 µM. Moreover, the TGI in the assay on BT-549 breast was 8.11 µM; in the assay with IGROV1 ovarian, greater than 100 µM; in the assay with MALME-3M melanoma it was greater than 100 µM; with SK-MEL-2 melanoma, 36.3 µM.

These data come from PubChem BioAssay (NCI).
